The values below are quoted from earlier work in patent publication US8445438B2, “Compositions comprising capture peptides for A β-amyloid peptide” (Recombinant Technologies LLC, priority 2008, dated 2013).

The subject of this data set is Aβ. The following applies: peptide based on the GxFxGxF scaffold.

Aβ, sequence (P05067 672-711 limits assumed): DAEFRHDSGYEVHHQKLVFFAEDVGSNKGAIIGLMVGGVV

For the sequence RGTWEGKW (listed as Homo sapiens), the cellular toxicity result is given as “reduce cellular toxicity”.
